Assay results taken from US10052368B2, “Pegylated tissue kallikrein, and preparation method therefor and uses thereof” (ZONHON BIOPHARMA INSTITUTE INC., priority 2013, dated 2018).
“Also recorded” adds a separate entry of the source.

What was measured:
[1] = In vitro activity of PEG-KLK1 conjugates (BAEE degradation, absorbance change); type: biochemical; settings: BAEE substrate, versus original unmodified protein
From the text: N-benzoyl-L arginine ethyl ester hydrochloride (BAEE, purchased from sigma Inc.) may be degraded by Kallikrein, and the activity of kininogenase may be determined according to the change in the absorbance before and after the enzymatic reaction, see Pharmacopoeia of People's Republic of China, pages 850-851, Section 2, 2010 version for a particular determination method. Samples to be detected were, respectively, SC-PEG5000-KLK1 (conjugate 1), Y-PALD-20K-KLK1 (conjugate 2), Y-PALD-30K-KLK1 (conjugate 3), and Y-PALD-40K-KLK1 (conjugate 4) from Preparation Example 1, and the original unmodified protein.
The recombinant expressed low-molecular weight human kallikrein (hK1K1) from Example 10 was modified with a Y-PALD-30K modifier, and after the modification, a mono-modified product (Y-PALD-30K-hK1K1) was prepared according to the method described in Example 1. […] According to the experimental method in Example 2, the activity of human kallikrein (hK1K1) before and after the modification was determined.
The recombinant human kallikrein expressed in CHO cells prepared in Example 12 was modified with a Y-PALD-30K modifier, and after the modification, a mono-modified product (Y-PALD-30K-rhK1K1) was prepared according to the method described in Example 1. […] According to the experimental method in Example 2, the activity of human kallikrein before and after the modification was determined.

[2] = Thermostability: activity after standing in a water bath at 65° C.; type: physicochemical; settings: for thermostability in comparison with the original protein: 65° C. water bath, 0-30 min
Procedure: In order to confirm whether the PEG modification can increase the stability of kallikrein, the activity of the conjugates 1 and 3 and the original protein after standing for a period of time in a water bath at 65° C. was detected respectively in this example. The method specifically included the following steps. The conjugates 1 and 3 and the unmodified kallikrein dissolved in a PBS buffer at a protein concentration of 1 mg/mL were stood in a water bath at 65° C., sampled at 0 min, 2.5 min, 5 min, 7.5 min, 10 min, 20 min, 25 min, and 30 min respectively, and stored in freezer at […] for later use. After sampling, the biological activity was detected by employing the method (i.e., the method described in appendix IX F in Pharmacopoeia of People's Republic of China, Section 3, 2005 version).

[3] = test system: cerebral ischemia reperfusion model of middle cerebral artery obstruction (MCAO); test: Cerebral ischemia reperfusion model of middle cerebral artery obstruction (MCAO); type: in vivo; settings: SD rats, 3 μg/kg once via vena caudalis; for Cerebral infarction area (%) / Score of neurologic deficit symptom: 24 h after reperfusion; for Cerebral infarction area (%): TTC staining; for Score of neurologic deficit symptom: improved Bederson 5-point system
From the text: A cerebral ischemia reperfusion model of middle cerebral artery obstruction (MCAO) was established by thread embolizing the internal carotid artery of SD rats (purchased from Shanghai Sippr bk Laboratory Animal Co. LTD.) A positive control 1 group (urinary kallikrein, Guangdong Tianpu Biochemical Pharmaceutical Co., LTD.), a positive control 2 group (tPA, Shanghai Boehringer Ingelheim Pharmaceuticals Co., LTD), a model control group (PBS), a sham group, a kallikrein group (from Changzhou Qianhong Biochemical Pharmaceutical Co., LTD.), a conjugate 1 group, a conjugate 2 group, a conjugate 3 group, and a conjugate 4 group were arranged respectively. Administration by injection through vena caudalis was performed once at 3 μg/kg (calculated according to the protein amount) immediately after the cerebral ischemia reperfusion. Neurologic deficit symptoms were observed 24 h after the reperfusion, and the cerebral infarction area was determined. In the model group, an equal volume of PBS was injected through vena caudalis into the rat. In the sham group, only blood vessels were separated, no embolizing thread was inserted, and an equal volume of PBS was injected through vena caudalis into the rats. Neurologic deficit symptoms were evaluated employing an improved Bederson 5-point system method. Neurologic deficit symptoms of the rats after brain trauma were evaluated by a single-blind method, i.e., the animals were marked according to groups by designers of the experiment, and scores of the neurologic deficit symptoms were given by experimenters blind to the grouping situation. The cerebral infarction area was calculated employing the following method. Cerebrums of the SD rats were stained with TTC (2,3,5-triphenyltetrazolium chloride) and then the photographs were subjected to statistics using an image analysis software, and the percentage of cerebral infarction area was calculated according to the following formula: % cerebral infarction area=100×(total ischemic area/total area on the right side)

[4] = Pharmacokinetics by 125I isotope labelling tracer method; type: in vivo; settings: rats, 1.5 U/kg via vena caudalis; for T½β: 2-compartment model
Procedure: The in vivo blood drug concentrations of kallikrein before and after the PEG modification were studied employing a ^125I isotope labelling tracer method in this example. In order to reduce the absorption of the labelled drug by the thyroid gland of rats, 1 ml of a 1% KI (Sinopharm Group) solution was intraperitoneally injected about 8 hours before the experiment, to saturate the thyroid gland of the rats. The rats were randomly divided into 3 groups, i.e., a conjugate 3 group, a kallikrein group, and a urinary kallikrein group, 8 in each group, half male and half female (purchased from Experimental Animal Center of Zhejiang Province).
A particular operation method is as follows:
1. Hydroxy on the amino acid residue phenyl ring in a protein molecule is substituted with radioiodine, to obtain the above protein with ^125I having a radioactive tracing effect.
2. Numbering is performed on the rats using picric acid according to the numbering rule, and weighing is performed. After fixing with a rat fixer, administration is performed by injection through vena caudalis (1.5 U/kg). The rat is let go immediately after the dosage, and allowed to move around, drink water, and eat food freely.
3. 0.2 mL of blood is taken from eye sockets 1 min, 3 min, 10 min, 20 min, 40 min, 60 min, 2 h, 4 h, 8 h, 12 h, 24 h, 48 h, 72 h, 96 h, and 120 h respectively after the dosage, and EDTA is added therein for anticoagulation.
4. The rat plasma is subjected to centrifugal separation at 5000 rpm for 3 min, and determined for plasma radioactivity using a gamma counter (Anke Zhongjia, GC-911), for 1 min.
5. Plasma is recovered after radioactivity determination, and undegraded proteinogenous drugs are separated by HPLC (Shimadzu LC-20AT).

[5] = test system: db/db mice as animal models for diabetic nephropathy; test: Diabetic nephropathy model in db/db mice; type: in vivo; settings: for 24-h urea nitrogen after administration, compared with the model group / 24-h urine creatinine after administration, compared with the model group / 24-h urine protein after administration, compared with the model group / 24-h urine volume after administration, compared with the model group: 2 μg/kg via vena caudalis, 2 months, original protein once a week, conjugate 3 once every 2 weeks
Procedure: db/db mice (purchased from Shanghai Slaccas Experimental Animal Co., LTD., grade SPF, 8-week aged, male, with a conformity certification No. of 2007000552656) were employed as animal models for diabetic nephropathy. A model group, a kallikrein (purchased from Changzhou Qianhong Biochemical Pharmaceutical Co., LTD.) original protein group and a conjugate 3 group were provided respectively. The administered dose was 2 μg/kg (calculated according to the protein amount), through vena caudalis, where the model group and the original protein group were dosed once a week, and the conjugate 3 group was dosed once every 2 weeks, for 2 continuous months before detection of urine volume, urine protein, urea nitrogen and urine creatinine. (Urine protein detection kits, urine creatinine detection kits, and urea nitrogen detection kits were all purchased from Nanjing Jiaticheng Bioengineering Co., LTD.)

[6] = test system: anti-kallikrein antibody level in serum; parameters: species or system mice; settings: mouse, in vivo, 1 mg/kg
Procedure: Relative immunogenicity of different PEG-KLK1 conjugates to mice was determined in this example, and compared with the original protein. The experiment was divided into a conjugate 2 group, a conjugate 3 group, a urinary kallikrein group and an original protein group. 1 mg/kg (calculated according to the protein amount) of the above protein was injected through vena caudalis into the mice at a frequency of twice a week, for 4 continuous weeks. Blood was taken from eye sockets 1 week after administration. The anti-kallikrein antibody level in serum was determined by […].

| Substance | activity retained, of the activity of the original protein [1] | thermostability in comparison with the original protein [2] | amelioration of cerebral infarction status of the model animals (in words) [3] | Cerebral infarction area (%) [3] | Score of neurologic deficit symptom [3] | activity after standing for 10 min at 65° C. ([2]; 1 mg/mL in PBS, 65° C., 10 min) | AUC [4] | CL [4] | V [4] | T½β [4] | 24-h urea nitrogen after administration, compared with the model group [5] | 24-h urine creatinine after administration, compared with the model group [5] | 24-h urine protein after administration, compared with the model group [5] | 24-h urine volume after administration, compared with the model group [5] | antibody titers on mice compared with kallikrein from porcine pancreas and urinary kallikrein [6] | activity after standing for 20 min at 65° C. ([2]; 1 mg/mL in PBS, 65° C., 20 min) | efficacy compared with the original protein group ([5]; conjugate 3 once every 2 weeks versus original protein once a week) | relative immunogenicity to mice compared with conjugate 2 [6] |
| --- | --- | --- | --- | --- | --- | --- | --- | --- | --- | --- | --- | --- | --- | --- | --- | --- | --- | --- |
| Y-PALD-30K-rhK1K1 | 88% |  |  |  |  |  |  |  |  |  |  |  |  |  |  |  |  |  |
| SC-PEG5000-KLK1 [Conjugate 1, reference compound] | 81% | unobvious | only partially ameliorated; also recorded: slightly ameliorate | 27.67 ± 4.34% | 2.45 ± 0.27 |  |  |  |  |  |  |  |  |  |  |  |  |  |
| Kallikrein |  |  | no apparent amelioration | 26.52 ± 3.67% | 2.41 ± 0.19 | substantially lost | 18.59 ng·h/mL | 2.17 mL/min/kg | 3.53 L/kg | 18.81 h | significantly reduced | significantly reduced | significantly reduced | significantly reduced |  |  |  |  |
| Y-PALD-20K-KLK1 [Conjugate 2] | 83% |  | apparent protective effects; also recorded: better therapeutic effect | 21.34 ± 1.70 % | 2.27 ± 0.24 |  |  |  |  |  |  |  |  |  | much lower |  |  |  |
| Y-PALD-30K-KLK1 [Conjugate 3] | 90% | significantly increased | apparent protective effects; also recorded: better therapeutic effect | 17.16 ± 4.07 % | 2.10 ± 0.23 |  | 113.62 ng·h/mL | 0.33 mL/min/kg | 0.64 L/kg | 20.03 h | significantly reduced | significantly reduced | significantly reduced | significantly reduced | much lower | still has a certain activity | apparently superior | slightly lower |
| Y-PALD-30K-hK1K1 | 85% |  |  |  |  |  |  |  |  |  |  |  |  |  |  |  |  |  |
| Y-PALD-40K-KLK1 [Conjugate 4] | 86% |  | essentially did not reduce; also recorded: no apparent amelioration | 31.27 ± 5.08% | 2.65 ± 0.34 |  |  |  |  |  |  |  |  |  |  |  |  |  |
| Positive control 1: urinary kallikrein sourced from human urine, Guangdong Tianpu Biochemical Pharmaceutical [reference compound] |  |  |  | 24.49 ± 3.96 % | 2.47 ± 0.21 |  | 11.68 ng·h/mL | 3.5 mL/min/kg | 5.16 L/kg | 17.49 h |  |  |  |  |  |  |  |  |
